Read-outs that look alike come from different tables or passages of the source.
Key:
[1] = tested on: human subjects/patients with pain following dental surgery; format: in vivo
[2] = tested on: human subjects/patients with pain following dental surgery; test: Dental surgery pain study: visual analog scale pain intensity difference (VAS-PID, VAS-SPID); format: in vivo; conditions: LOCF; for Hourly Visual Analog-PID (VAS-PID) score, Mean / Hourly Visual Analog-PID (VAS-PID) score, Median: ITT subjects
[3] = tested on: human subjects/patients with pain following dental surgery; test: Dental surgery pain study: global evaluations; format: in vivo; conditions: ITT
Description: For this randomized, double-blind, active-controlled and placebo-controlled, parallel-group study, human subjects were randomized into one of the following five treatment groups:
A positive control (T, Group 4) was used to determine the sensitivity of the clinical end points. A negative control (placebo, Group 5) was used to establish the frequency and magnitude of changes in clinical end points that may occur in the absence of an active treatment. A single oral dose of study medication was administered when the subject experienced moderate to severe pain following the surgical extraction of three or four third molars. At least one of the molars was required to be mandibular bony impacted.
At the end of eight hours, or at the termination of hourly observations if sooner than eight hours, a global assessment was made by the subject and the observer in response to the question, “How do you rate the pain relief?” with response choices of excellent, very good, good, fair or poor. Assessment of adverse events continued for at least one hour following rescue medication. Subjects not completing at least the Hour 1 observation period were considered not evaluable for efficacy and were replaced.

[4] = in vivo, cited from earlier work
[5] = tested on: human subjects/patients with pain following dental surgery; test: Dental surgery pain study: adverse events
[6] = ITT, counted once per subject (Table 15)
[7] = Severity = Moderate, ITT subjects

COc1cccc([C@@]2(O)CCCC[C@@H]2CN(C)C)c1.Cl (racemic) [tramadol, (1RS,2RS)-2[(dimethylamino)-methyl]-1-(3-methoxyphenyl)-cyclohexanol HCL]
Hourly Pain Relief Score (PAR), Mean ([1]; Hour 0.5, ITT): 0.28 | Hourly Pain Relief Score (PAR), Median ([1]; Hour 0.5, ITT): 0 | Hourly Pain Relief Score (PAR), Mean ([1]; Hour 1, ITT): 0.40 | Hourly Pain Relief Score (PAR), Median ([1]; Hour 1, ITT): 0 | Hourly Pain Relief Score (PAR), Mean ([1]; Hour 2, ITT): 0.76 | Hourly Pain Relief Score (PAR), Median ([1]; Hour 2, ITT): 0 | Hourly Pain Relief Score (PAR), Mean ([1]; Hour 3, ITT): 0.80 | Hourly Pain Relief Score (PAR), Median ([1]; Hour 3, ITT): 0 | Hourly Pain Relief Score (PAR), Mean ([1]; Hour 4, ITT): 0.94 | Hourly Pain Relief Score (PAR), Median ([1]; Hour 4, ITT): 0 | Hourly Pain Relief Score (PAR), Mean ([1]; Hour 5, ITT): 0.84 | Hourly Pain Relief Score (PAR), Median ([1]; Hour 5, ITT): 0 | Hourly Pain Relief Score (PAR), Mean ([1]; Hour 6, ITT): 0.86 | Hourly Pain Relief Score (PAR), Median ([1]; Hour 6, ITT): 0 | Hourly Pain Relief Score (PAR), Mean ([1]; Hour 7, ITT): 0.82 | Hourly Pain Relief Score (PAR), Median ([1]; Hour 7, ITT): 0 | Hourly Pain Relief Score (PAR), Mean ([1]; Hour 8, ITT): 0.86 | Hourly Pain Relief Score (PAR), Median ([1]; Hour 8, ITT): 0 | TOTPAR up to 4 Hours, Mean ([1]; ITT, single oral dose, LOCF): 3.18 | TOTPAR up to 4 Hours, Median ([1]; ITT, single oral dose, LOCF): 2 | TOTPAR up to 6 Hours, Mean ([1]; ITT, single oral dose, LOCF): 4.88 | TOTPAR up to 6 Hours, Median ([1]; ITT, single oral dose, LOCF): 2 | TOTPAR up to 8 Hours, Mean ([1]; ITT, single oral dose, LOCF): 6.56 | TOTPAR up to 8 Hours, Median ([1]; ITT, single oral dose, LOCF): 2 | Hourly Visual Analog-PID (VAS-PID) score, Mean ([2]; Hour 0.5): −6.16 | Hourly Visual Analog-PID (VAS-PID) score, Median ([2]; Hour 0.5): −4 | Hourly Visual Analog-PID (VAS-PID) score, Mean ([2]; Hour 1): −7.54 | Hourly Visual Analog-PID (VAS-PID) score, Median ([2]; Hour 1): −7 | Hourly Visual Analog-PID (VAS-PID) score, Mean ([2]; Hour 2): −2.58 | Hourly Visual Analog-PID (VAS-PID) score, Median ([2]; Hour 2): −4 | Hourly Visual Analog-PID (VAS-PID) score, Mean ([2]; Hour 3): −1.76 | Hourly Visual Analog-PID (VAS-PID) score, Median ([2]; Hour 3): −2 | Hourly Visual Analog-PID (VAS-PID) score, Mean ([2]; Hour 4): 1.50 | Hourly Visual Analog-PID (VAS-PID) score, Median ([2]; Hour 4): −2 | Hourly Visual Analog-PID (VAS-PID) score, Mean ([2]; Hour 5): 1.16 | Hourly Visual Analog-PID (VAS-PID) score, Median ([2]; Hour 5): −2 | Hourly Visual Analog-PID (VAS-PID) score, Mean ([2]; Hour 6): 1.36 | Hourly Visual Analog-PID (VAS-PID) score, Median ([2]; Hour 6): −2 | Hourly Visual Analog-PID (VAS-PID) score, Mean ([2]; Hour 7): −1.10 | Hourly Visual Analog-PID (VAS-PID) score, Median ([2]; Hour 7): −2 | Hourly Visual Analog-PID (VAS-PID) score, Mean ([2]; Hour 8): −0.02 | Hourly Visual Analog-PID (VAS-PID) score, Median ([2]; Hour 8): −2 | VAS-SPID up to 4 Hours, Mean ([2]; ITT, single oral dose): −16.54 | VAS-SPID up to 4 Hours, Median ([2]; ITT, single oral dose): −19 | VAS-SPID up to 6 Hours, Mean ([2]; ITT, single oral dose): −14.02 | VAS-SPID up to 6 Hours, Median ([2]; ITT, single oral dose): −18 | VAS-SPID up to 8 Hours, Mean ([2]; ITT, single oral dose): −15.14 | VAS-SPID up to 8 Hours, Median ([2]; ITT, single oral dose): −27 | Global Evaluation, Observer Evaluation: Excellent [3]: 2 (4.0%) n (%) | Global Evaluation, Observer Evaluation: Fair [3]: 13 (26.0%) n (%) | Global Evaluation, Observer Evaluation: Good [3]: 5 (10.0%) n (%) | Global Evaluation, Observer Evaluation: Poor [3]: 25 (50.0%) n (%) | Global Evaluation, Observer Evaluation: Very Good [3]: 5 (10.0%) n (%) | Global Evaluation, Subject Evaluation: Excellent [3]: 1 (2.0%) n (%) | Global Evaluation, Subject Evaluation: Fair [3]: 13 (26.0%) n (%) | Global Evaluation, Subject Evaluation: Good [3]: 4 (8.0%) n (%) | Global Evaluation, Subject Evaluation: Poor [3]: 26 (52.0%) n (%) | Global Evaluation, Subject Evaluation: Very Good [3]: 6 (12.0%) n (%) | potency relative to morphine ([4]; iv): approximately one-tenth | oral analgesic potency versus morphine ([4]; po): equipotent to oral morphine 30 mg | Adverse events: Number (%) with Events ([5]; ITT, Severity = Severe): 3 (6.0%) n (%) | Adverse events: Number of Events ([5]; ITT, Severity = Severe): 3 events | Gastrointestinal Disorders, frequency (percentage) ([5]; ITT, Severity = Severe): 2 (4.0%) n (%) | Gastrointestinal Disorders, occurrence ([5]; ITT, Severity = Severe): 2 events | Headache Nos, frequency (percentage) ([5]; ITT, Severity = Severe): 1 (2.0%) n (%) | Headache Nos, occurrence ([5]; ITT, Severity = Severe): 1 events | Nausea, frequency (percentage) ([5]; ITT, Severity = Severe): 2 (4.0%) n (%) | Nausea, occurrence ([5]; ITT, Severity = Severe): 2 events | Nervous System Disorders, frequency (percentage) ([5]; ITT, Severity = Severe): 1 (2.0%) n (%) | Nervous System Disorders, occurrence ([5]; ITT, Severity = Severe): 1 events | Vomiting Nos, frequency (percentage) ([5]; ITT, Severity = Severe): 1 (2.0%) n (%) | Vomiting Nos, occurrence ([5]; ITT, Severity = Severe): 1 events | Adverse events: Number (%) with Events ([5]; ITT, all severities): 40 (80%) n (%) | Adverse events: Number of Events ([5]; ITT, all severities): 134 events | Dizziness (Exc Vertigo), frequency (percentage) ([5]; ITT, all severities): 15 (30.0%) n (%) | Dizziness (Exc Vertigo), occurrence ([5]; ITT, all severities): 19 events | Gastrointestinal Disorders, frequency (percentage) ([5]; ITT, all severities): 20 (40.0%) n (%) | Gastrointestinal Disorders, occurrence ([5]; ITT, all severities): 40 events | Headache Nos, frequency (percentage) ([5]; ITT, all severities): 28 (56.0%) n (%) | Headache Nos, occurrence ([5]; ITT, all severities): 38 events | Nausea, frequency (percentage) ([5]; ITT, all severities): 20 (40.0%) n (%) | Nausea, occurrence ([5]; ITT, all severities): 28 events | Nervous System Disorders, frequency (percentage) ([5]; ITT, all severities): 40 (80.0%) n (%) | Nervous System Disorders, occurrence ([5]; ITT, all severities): 89 events | Pruritus Nos, frequency (percentage) ([5]; ITT, all severities): 2(4.0%) n (%) | Pruritus Nos, occurrence ([5]; ITT, all severities): 2 events | Sedation, frequency (percentage) ([5]; ITT, all severities): 28 (56.0%) n (%) | Sedation, occurrence ([5]; ITT, all severities): 32 events | Skin & Subcutaneous Tissue Disorders, frequency (percentage) ([5]; ITT, all severities): 2 (4.0%) n (%) | Skin & Subcutaneous Tissue Disorders, occurrence ([5]; ITT, all severities): 2 events | Vomiting Nos, frequency (percentage) ([5]; ITT, all severities): 10 (20.0%) n (%) | Vomiting Nos, occurrence ([5]; ITT, all severities): 12 events | Incidence of Nausea, No [5, 6]: 30 (60.0%) n (%) | Incidence of Nausea, Yes [5, 6]: 20 (40.0%) n (%) | Incidence of Vomiting Nos, No [5, 6]: 40 (80.0%) n (%) | Incidence of Vomiting Nos, Yes [5, 6]: 10 (20.0%) n (%) | Dizziness (Exc Vertigo), frequency (subjects) ([5]; Severity = Mild, ITT subjects): 12 | Dizziness (Exc Vertigo), occurrence (events) ([5]; Severity = Mild, ITT subjects): 16 | Dizziness (Exc Vertigo), percentage of subjects ([5]; Severity = Mild, ITT subjects): 24.0% | Gastrointestinal Disorders, frequency (subjects) ([5]; Severity = Mild, ITT subjects): 6 | Gastrointestinal Disorders, occurrence (events) ([5]; Severity = Mild, ITT subjects): 15 | Gastrointestinal Disorders, percentage of subjects ([5]; Severity = Mild, ITT subjects): 12.0% | Headache Nos, frequency (subjects) ([5]; Severity = Mild, ITT subjects): 17 | Headache Nos, occurrence (events) ([5]; Severity = Mild, ITT subjects): 26 | Headache Nos, percentage of subjects ([5]; Severity = Mild, ITT subjects): 34.0% | Nausea, frequency (subjects) ([5]; Severity = Mild, ITT subjects): 9 | Nausea, occurrence (events) ([5]; Severity = Mild, ITT subjects): 14 | Nausea, percentage of subjects ([5]; Severity = Mild, ITT subjects): 18.0% | Nervous System Disorders, frequency (subjects) ([5]; Severity = Mild, ITT subjects): 23 | Nervous System Disorders, occurrence (events) ([5]; Severity = Mild, ITT subjects): 66 | Nervous System Disorders, percentage of subjects ([5]; Severity = Mild, ITT subjects): 46.0% | Number of Events ([5]; Severity = Mild, ITT subjects): 84 | Number of subjects with adverse events ([5]; Severity = Mild, ITT subjects): 15 | Percentage of subjects with adverse events ([5]; Severity = Mild, ITT subjects): 30.0% | Pruritus Nos, frequency (subjects) ([5]; Severity = Mild, ITT subjects): 2 | Pruritus Nos, occurrence (events) ([5]; Severity = Mild, ITT subjects): 2 | Pruritus Nos, percentage of subjects ([5]; Severity = Mild, ITT subjects): 4.0% | Sedation, frequency (subjects) ([5]; Severity = Mild, ITT subjects): 21 | Sedation, occurrence (events) ([5]; Severity = Mild, ITT subjects): 24 | Sedation, percentage of subjects ([5]; Severity = Mild, ITT subjects): 42.0% | Skin & Subcutaneous Tissue Disorders, frequency (subjects) ([5]; Severity = Mild, ITT subjects): 2 | Skin & Subcutaneous Tissue Disorders, occurrence (events) ([5]; Severity = Mild, ITT subjects): 2 | Skin & Subcutaneous Tissue Disorders, percentage of subjects ([5]; Severity = Mild, ITT subjects): 4.0% | Vomiting Nos, frequency (subjects) ([5]; Severity = Mild, ITT subjects): 3 | Vomiting Nos, occurrence (events) ([5]; Severity = Mild, ITT subjects): 4 | Vomiting Nos, percentage of subjects ([5]; Severity = Mild, ITT subjects): 6.0% | Dizziness (Exc Vertigo), frequency (subjects) [5, 7]: 3 | Dizziness (Exc Vertigo), occurrence (events) [5, 7]: 3 | Dizziness (Exc Vertigo), percentage of subjects [5, 7]: 6.0% | Gastrointestinal Disorders, frequency (subjects) [5, 7]: 12 | Gastrointestinal Disorders, occurrence (events) [5, 7]: 23 | Gastrointestinal Disorders, percentage of subjects [5, 7]: 24.0% | Headache Nos, frequency (subjects) [5, 7]: 10 | Headache Nos, occurrence (events) [5, 7]: 11 | Headache Nos, percentage of subjects [5, 7]: 20.0% | Nausea, frequency (subjects) [5, 7]: 10 | Nausea, occurrence (events) [5, 7]: 13 | Nausea, percentage of subjects [5, 7]: 20.0% | Nervous System Disorders, frequency (subjects) [5, 7]: 16 | Nervous System Disorders, occurrence (events) [5, 7]: 22 | Nervous System Disorders, percentage of subjects [5, 7]: 32.0% | Number of Events [5, 7]: 47 | Number of subjects with adverse events [5, 7]: 22 | Percentage of subjects with adverse events [5, 7]: 44.0% | Sedation, frequency (subjects) [5, 7]: 7 | Sedation, occurrence (events) [5, 7]: 8 | Sedation, percentage of subjects [5, 7]: 14.0% | Vomiting Nos, frequency (subjects) [5, 7]: 9 | Vomiting Nos, occurrence (events) [5, 7]: 10 | Vomiting Nos, percentage of subjects [5, 7]: 18.0%

Source: US6765010B2, “Compositions and methods for enhancing analgesic potency of tramadol and attenuating its adverse side effects” (Pain Therapeutics, Inc., priority 1999, dated 2004)
